Test results: patent US9302998B2, “Aryl triazole compounds with antitumoural activity” (SIGMA-TAU RESEARCH SWITZERLAND S.A., priority 2010, dated 2016)
One block for each molecule: values may come before it.

Tests used:
[1] = test system: NCI-H460 non-small cell lung carcinoma; experiment: Cytotoxicity assay, sulphorodamine B test, NCI-H460; assay type: cell-based; details: Homo sapiens, NCI-H460; 72 h, sulphorodamine B
Experimental: (§1) The antiproliferative activity of novel Hsp90 inhibitors was also evaluated on various cancerous cell lines by means of the sulphorodamine B test (i.e., NCI-H460 non-small cell lung carcinoma, A431 epidermoid, A2780 ovarian, MDA-MB436 triple-negative breast, U87MG glioblastoma, A498 renal, HCT116 colon, MeWo melanoma, MiaPaCa2 pancreas, HeLa cervix uteri, NB4 promyelocytic leukemia). NCI-H460, A431, MDA-MB436, A2780, A498, HeLa, NB4 tumour cells were grown in RPMI 1640 containing 10% fetal bovine serum (i.e., FBS from GIBCO), L-glutamine, and 50 μg/ml gentamycin sulfate.
(§2) All cell lines were maintained in a 37° C. incubator with saturated humidity and an atmosphere containing 95% air and 5% CO2, and were sub-cultured every 2-3 days. Tumour cells were seeded in 96-well tissue culture plates at approximately 10% confluence and were allowed to attach and recover for 24 h.
(§3) Varying concentrations of the drugs were then added to each well to calculate their IC50 value (the concentration which inhibits the 50% of cell survival). The plates were incubated at 37° C. for 72 h. At the end of the treatment, the plates were washed by remotion of the supernatant and addition of PBS 3 times. 200 μl PBS and 50 μl of cold 80% trichloroacetic acid (TCA) were added. The plates were incubated on ice for at least 1 h. TCA was removed, the plates were washed 3 times by immersion in distilled-water and dried on paper and at 40° C. for […]. Then 200 μl of 0.4% sulphorodamine B in 1% acetic acid were added. The plates were incubated at room temperature for 30 min. Sulphorodamine B was removed, the plates were washed by immersion in 1% acetic acid for 3 times, then they were dried on paper and at 40° C. for 5 min. Then, 200 μl Tris 10 mM were added, the plates were kept under stirring for 20 min. The cell survival was determined as optical density by a Multiskan […] at 540 nm. The amount of cells killed was calculated as the percentage decrease in sulphorodamine B binding compared with control cultures.

[2] = test system: HCT116 colon; experiment: Sulphorodamine B test at single concentration, HCT116; assay type: cell-based; details: Homo sapiens, HCT-116; 500 nM, 72 h
Experimental: as §1
HCT116 cells were cultured in McCoy's medium containing 10% FBS, L-glutamine, and 50 μg/ml gentamycin sulfate.
as §2, §3
(§4) The other cell lines were screened against one single concentration of the various inhibitors (i.e., 500 nM), all experiments being made in octuplicate, following the protocol described at example 35. Since NB4 cell line was grown in suspension, a further step of centrifugation (i.e., 1600 g for 10 min) was added after the 72 hour incubation period.

[3] = test system: U87MG glioblastoma; experiment: Sulphorodamine B test at single concentration, U87MG; assay type: cell-based; details: Homo sapiens, U-87 MG; 500 nM, 72 h
Experimental: as §1
(§5) MeWo and U87-MG cells were cultured in Eagle's Minimum Essential Medium (i.e., EMEM) containing 10% FBS, L-glutamine, 1 mM sodium pyruvate, 0.1 mM non-essential amino acids, 1.5 g/l sodium bicarbonate, and 50 μg/ml gentamycin sulphate.
as §2, §3, §4

[4] = test system: A498 renal; experiment: Sulphorodamine B test at single concentration, A498; assay type: cell-based; details: Homo sapiens, 500 nM, 72 h
Experimental: as §1, §2, §3, §4

[5] = test system: MiaPaCa2 pancreas; experiment: Sulphorodamine B test at single concentration, MiaPaCa2; assay type: cell-based; details: Homo sapiens, MIA PaCa-2; 500 nM, 72 h
Experimental: as §1
MiaPaCa2 cells were cultured in DMEM medium containing 10% FBS, L-glutamine, and 50 μg/ml gentamycin sulfate.
as §2, §3, §4

[6] = test system: A431 epidermoid; experiment: Sulphorodamine B test at single concentration, A431; assay type: cell-based; details: Homo sapiens, A-431; 500 nM, 72 h
Experimental: as §1, §2, §3, §4

[7] = test system: A2780 ovarian; experiment: Sulphorodamine B test at single concentration, A2780; assay type: cell-based; details: Homo sapiens, 500 nM, 72 h
Experimental: as §1, §2, §3, §4

[8] = target: T1, Hsp90 (Homo sapiens, UniProt P07900); experiment: Fluorescence Polarization (FP) binding, GM-BODIPY displacement from Hsp90; details: GM-BODIPY tracer, 4° C. for 4 hours
T1 construct: purchased Stressgen SPP-776
Experimental: GM-BODIPY (PerkinElmer, CUSN60342000MG) was previously dissolved in DMSO to obtain 10 mM stock solutions and kept at −20° C. until use.
Hsp90 (Stressgen, SPP-776), was previously dissolved in assay buffer (HFB) to form 2.2 μM stock solutions and kept at −80° C. until use.
The compounds were previously dissolved in DMSO to obtain stock solutions and kept at −20° C. The day of experiment, the compounds were prepared by serial dilutions in assay buffer (HFB) containing 20 mM HEPES (K) pH 7.3, 50 mM KCl, 5 mM MgCl2, 20 mM Na2MoO4 and 0.01% NP40. Before each use, 0.1 mg/ml Bovine Gamma globulin and 2 mM DTT were freshly added.
Fluorescence Polarization (FP) was performed in Opti-Plate™-96F well plates (Perkin Elmer, Zaventem, Belgium) using a plate reader (Wallac Envision 2101 multilabel reader, Perkin Elmer, Zaventem, Belgium). To evaluate the binding affinity of the molecules, 50 μl of the GM-BODIPY solution (100 nM) were added to 125 nM of Hsp90 in the presence of 5 μl of the test compounds at increasing concentrations. The plate was mixed on a shaker at 4° C. for 4 hours, and the FP values in mP (millipolarization units) were recorded. The IC50 values were calculated as the inhibitor concentration where 50% of the tracer is displaced; each data point is the result of the average of triplicate wells, and was determined from a plot using nonlinear least-squares analysis. Curve fitting was performed using
Prism GraphPad software program (GraphPad software, Inc., San Diego, Calif.).

[9] = test system: HeLa cervix uteri; experiment: Sulphorodamine B test at single concentration, HeLa; assay type: cell-based; details: Homo sapiens, 500 nM, 72 h
Experimental: as §1, §2, §3, §4

[10] = test system: MDA-MB436 triple-negative breast; experiment: Sulphorodamine B test at single concentration, MDA-MB436; assay type: cell-based; details: Homo sapiens, MDA-MB-436; 500 nM, 72 h
Experimental: as §1, §2, §3, §4

[11] = test system: NB4 promyelocytic leukemia; experiment: Sulphorodamine B test at single concentration, NB4; assay type: cell-based; details: 500 nM, 72 h, suspension cells
Experimental: as §1, §2, §3, §4

[12] = test system: MeWo melanoma; experiment: Sulphorodamine B test at single concentration, MeWo; assay type: cell-based; details: Homo sapiens, 500 nM, 72 h
Experimental: as §1, §5, §2, §3, §4

SMILES: CCNC(=O)c1nnn(-c2cc(C(C)C)c(O)cc2O)c1-c1ccc(CN2CCOCC2)cc1 [Example 5, 1-(2,4-dihydroxy-5-isopropyl-phenyl)-5-(4-morpholin-4-ylmethyl-phenyl)-1H-[1,2,3]triazole-4-carboxylic ethyl amide]
IC50 [1]: < 50 nM
inhibition at 0.5 µM [2]: ≥ 50%
inhibition at 0.5 µM [3]: ≥ 50%
inhibition at 0.5 µM [4]: ≥ 50%
inhibition at 0.5 µM [5]: ≥ 50%
inhibition at 0.5 µM [6]: ≥ 50%
inhibition at 0.5 µM [7]: ≥ 50%
IC50 [8]: < 50 nM
inhibition at 0.5 µM [9]: ≥ 50%
inhibition at 0.5 µM [10]: ≥ 50%
inhibition at 0.5 µM [11]: ≥ 50%
inhibition at 0.5 µM [12]: ≥ 50%

SMILES: CCNC(=O)c1nnn(-c2cc(C(C)C)c(O)cc2O)c1-c1ccc(CN(CC)CCO)cc1 [Example 7, 1-(2,4-dihydroxy-5-isopropyl-phenyl)-5-(4-{[ethyl-(2-hydroxy-ethyl)-amino]-methyl}-phenyl)-1H-[1,2,3]triazole-4-carboxylic acid ethylamide]
IC50 [1]: 50 to 100 nM
inhibition at 0.5 µM [2]: ≥ 50%
inhibition at 0.5 µM [3]: ≥ 50%
inhibition at 0.5 µM [4]: ≥ 50%
inhibition at 0.5 µM [5]: ≥ 50%
inhibition at 0.5 µM [6]: ≥ 50%
inhibition at 0.5 µM [7]: ≥ 50%
IC50 [8]: < 50 nM
inhibition at 0.5 µM [9]: ≥ 50%
inhibition at 0.5 µM [10]: ≥ 50%
inhibition at 0.5 µM [11]: ≥ 50%
inhibition at 0.5 µM [12]: ≥ 50%

SMILES: CCNC(=O)c1nnn(-c2cc(C(C)C)c(O)cc2O)c1-c1ccc(Cn2ccnc2)cc1 [Example 22, 1-(2,4-dihydroxy-5-isopropyl-phenyl)-5-(4-imidazol-1-ylmethyl-phenyl)-1H-[1,2,3]triazole-4-carboxylic acid ethylamide]
inhibition at 0.5 µM [2]: ≥ 50%
inhibition at 0.5 µM [3]: ≥ 50%
inhibition at 0.5 µM [4]: ≥ 50%
inhibition at 0.5 µM [5]: ≥ 50%
inhibition at 0.5 µM [6]: ≥ 50%
inhibition at 0.5 µM [7]: ≥ 50%
IC50 [8]: < 50 nM
inhibition at 0.5 µM [9]: ≥ 50%
inhibition at 0.5 µM [10]: ≥ 50%
inhibition at 0.5 µM [11]: ≥ 50%
inhibition at 0.5 µM [12]: ≥ 50%

Further lines, with some results ahead:

IC50 [8]: < 50 nM
SMILES: CCNC(=O)c1nnn(-c2cc(C(C)C)c(O)cc2O)c1-c1ccc(CN2CCCC(O)C2)cc1 (racemic) [Example 6, (R,S)-1-(2,4-dihydroxy-5-isopropyl-phenyl)-5-[4-(3-hydroxy-piperidin-1-ylmethyl)-phenyl]-1H-[1,2,3]triazole-4-carboxylic acid ethylamide]
IC50 [1]: 50 to 100 nM
inhibition at 0.5 µM [2]: ≥ 50%
inhibition at 0.5 µM [3]: ≥ 50%
inhibition at 0.5 µM [4]: ≥ 50%
inhibition at 0.5 µM [5]: ≥ 50%
inhibition at 0.5 µM [6]: ≥ 50%
inhibition at 0.5 µM [7]: ≥ 50%
inhibition at 0.5 µM [9]: ≥ 50%
inhibition at 0.5 µM [10]: ≥ 50%
inhibition at 0.5 µM [11]: ≥ 50%
inhibition at 0.5 µM [12]: ≥ 50%

IC50 [8]: < 50 nM
SMILES: CC(C)c1cc(-n2nncc2-c2ccc(CN3CCCC(O)C3)cc2)c(O)cc1O (stereo not shown) [Example 2, 4-{5-[4-(3-hydroxy-piperidin-1-ylmethyl)-phenyl]-[1,2,3]triazol-1-yl}-6-isopropyl-benzene-1,3-diol]
IC50 [1]: < 50 nM
inhibition at 0.5 µM [2]: ≥ 50%
inhibition at 0.5 µM [3]: 30 to 50%
inhibition at 0.5 µM [4]: 30 to 50%
inhibition at 0.5 µM [5]: ≥ 50%
inhibition at 0.5 µM [6]: ≥ 50%
inhibition at 0.5 µM [7]: ≥ 50%
inhibition at 0.5 µM [9]: ≥ 50%
inhibition at 0.5 µM [10]: ≥ 50%
inhibition at 0.5 µM [11]: ≥ 50%
inhibition at 0.5 µM [12]: ≥ 50%

IC50 [8]: < 50 nM
SMILES: CCNC(=O)c1nnn(-c2cc(C(C)C)c(O)cc2O)c1-c1ccc(CN2CCCC2)cc1 [Example 21, 1-(2,4-dihydroxy-5-isopropyl-phenyl)-5-(4-pyrrolidin-1-ylmethyl-phenyl)-1H-[1,2,3]triazole-4-carboxylic acid ethylamide]
inhibition at 0.5 µM [2]: ≥ 50%
inhibition at 0.5 µM [3]: ≥ 50%
inhibition at 0.5 µM [4]: ≥ 50%
inhibition at 0.5 µM [5]: ≥ 50%
inhibition at 0.5 µM [6]: ≥ 50%
inhibition at 0.5 µM [7]: ≥ 50%
inhibition at 0.5 µM [9]: ≥ 50%
inhibition at 0.5 µM [10]: ≥ 50%
inhibition at 0.5 µM [11]: ≥ 50%
inhibition at 0.5 µM [12]: ≥ 50%
